From patent publication US7803559B1, “Protein aggregation regulators” (The Regents of the University of CA, priority 2003, dated 2010)
Where two headings read alike, the source gives them in different places.

Legend:
[1] = Pharmacokinetics in serum and brain of mice (LC-MS); type: in vivo, mouse; details: for half-life: mouse
Protocol: The pharmacokinetics of candidate compounds were assayed in serum and brain of mice. Wild-type C57B6 mice are injected with a single IP dose of a candidate compound, e.g., Y-27632 at 10 mg/kg. Pairs of animals are sacrificed at various time points and serum and brain samples were obtained for LC-MS analysis of drug levels. Plots of serum concentration vs. time and brain concentration vs. time are used to analyze, e.g., penetration of the blood/brain barrier, drug kinetics, and t1/2.
Wild-type C57B6 mice were treated with a single 10 mg/kg dose of Y-27632 by IP injection. Pairs of animals were sacrificed at various time points and serum and brain samples were obtained for LC-MS analysis of Y-27632 levels. […] The initial rapid fall in serum concentration is likely due to tissue re-distribution. […] Values represent the average from two mice; error bars represent the range.

AR(122)-C17.2 cells = experiment: Cell model of full length AR cytopathology (surviving neurons after 6 days of differentiation); type: cell-based, mouse; details: 50 μM
Description: (§1) Immortalized cell lines were created expressing full-length AR that differentiated in vitro into cells that resemble CNS neurons. C17.2 cells were used, developed by Evan Snyder, M. D., Ph.D. which are a transformed mouse neural precursor cell line that retain the ability to engraft and differentiate into CNS neurons and glia when implanted into fetal mouse brain (Snyder et al. 1192 Cell 68:33-51). In their undifferentiated form these cells may be propagated and easily transfected in vitro. However, upon serum starvation, addition of growth factor (NGF 100 ng/ml), and mitomycin (100 ng/ml) they differentiate into cells that have many features of CNS neurons, including axons, dendrites, and expression of neuron-specific markers.
(§2) C17.2 cell lines were created that stably expressed full-length HA-tagged forms of AR (25, 66, 103, or 122 glutamines). These AR(n)-C17.2 cell lines recapitulate several important aspects of SBMA, including proteolytic cleavage, and nuclear inclusion formation (data not shown). […] After six days of differentiation, AR(25)-C17.2 cells cultured with or without DHT readily formed neuron-like cells, expressing neural markers and extending long axonal processes. […]

[2] = tested on: Transgenic flies harboring htt exon 1 (Q93); experiment: Drosophila model of htt exon 1 neurodegeneration (rhabdomeres per ommatidium); type: in vivo; details: 25 μM in food, seven days post-eclosion, p<0.0003 by ANOVA
Protocol: Transgenic flies were used, harboring a human huntingtin exon 1 fragment with 93 glutamines (htt exon 1 (Q93)) that is expressed in all fly neurons under the control of the elav:Gal4 driver.
Flies were treated by maintaining adults on food containing candidate compound (e.g., 25 μM Y-27632) or no drug supplement. The number of rhabdomeres in treated vs. untreated flies were analyzed seven days post-eclosion by the pseudopupil technique as described (Steffan et al., (2001). Nature 413, 739-743). Approximately 50-60 ommatidia were analyzed for rhabdomere content on each of 10-12 flies from each treatment group, and the average number of rhabdomeres per ommatidium in each individual was determined. Percent rhabdomere loss was calculated as 100×((7−average number remaining)/7) before and after treatment.
The therapeutic effect of Y-27632 in a Drosophila model of polyglutamine neurodegenerative disease was tested. Following eclosion, adult flies expressing the transgene were grown for seven days in the presence or absence of 25 μM Y-27632 in their food and rhabdomeres were counted at seven days. […] Thus, in addition to reducing polyglutamine aggregation in mammalian cells, Y-27632 is neuroprotective in this Drosophila model of polyglutamine protein toxicity.

full-length AR = experiment: Western blot of full-length AR levels in stable C17.2 neural cell lines; type: cell-based; details: 50 μM, with or without 100 nM DHT, FIG. 6A
Description: as §1, §2

htt(72)CFP/YFP = target: T1, htt(72)CFP/YFP (Homo sapiens, UniProt P42858, INS38QQQQQQQQQQQQQQQQQQQQQQQQQQQQQQQQQQQQQQQQQQQQQQQQQQQ); experiment: FRET based assay of htt aggregation; type: cell-based; details: FIG. 3A
T1 construct: htt exon 1 fragment derived from plasmid qp72; expressed in transfected cells; host or cells: HEK293
Protocol: Aggregation of htt was monitored using the FPR FRET based HTS described herein for assaying aggregation of AR, using plasmids with htt exon 1-CFP and -YFP fusions containing 72 repeats (htt(72)CFP/YFP). HEK293 cells were transfected with htt(72)CFP/YFP as above, and cells were plated into a 96-well dish in the presence or absence of various concentrations of test compounds. After 24 hours, cells were fixed in 4% paraformaldehyde, and FRET signal was determined from the cell monolayers by reading on the FPR.

ARN127(65)CFP/YFP = experiment: FRET-based assay of polyglutamine (AR) aggregation, limited chemical screen and dose-response; type: cell-based, human
Protocol: For experiments in the fluorescence plate reader, high-throughput screening, and detergent fractionation, HEK293 cells in 6-well plates were transfected with a total of 2 μg of DNA using 10 μL Plus™ and 12 μL Lipofectamine™ according to manufacturer's protocol. To control for autofluorescence and light scattering by mammalian cells, a control group was transfected with 2 μg pcDNA3. To control for bleedthrough and crossover excitation, CFP and YFP controls were transfected with 1 μg pECFP-C1 (Clontech) and 1 μg pcDNA3 (Invitrogen) or 1 μg pEYFP-C1 (Clontech) and 1 μg pcDNA3 respectively. After 5 hours, cells were counted and plated into optically clear 96-well plates (Costar™ 3603) at a density of 60,000 cells/well. […] For assays of rho-GTPase mutants, 1 μg of each was used in conjunction with 1 μg of the polyglutamine expression plasmids. Transfections were performed in triplicate, and each experiment was repeated 6 times. C17-2 neural precursor cells were plated in 12-well plates and transfected using 4 μg of DNA and 4 μl of Lipofectamine 2000™. […] In C17-2 cells polyglutamine protein was visualized by direct fluorescence; neuron-specific tubulin was visualized by immunostaining with mouse monoclonal antibody Neuro TUJ1 (Covance) at 1:1000. […]

[3] = C57B6 mice, single 10 mg/kg dose IP

T1 sequence (P42858 with tags, fused parts or gaps, stated change not applied): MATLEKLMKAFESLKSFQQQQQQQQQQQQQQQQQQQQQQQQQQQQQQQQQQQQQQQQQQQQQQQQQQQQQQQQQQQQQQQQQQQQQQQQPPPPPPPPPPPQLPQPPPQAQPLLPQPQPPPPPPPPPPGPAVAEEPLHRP

C[C@@H](N)C1CCC(C(=O)Nc2ccncc2)CC1 (stereo partly shown) [Compound Y-27632]
serum:brain ratio ([1]; C57B6, mouse, in vivo, ip, 10 mg/kg): approximately 6:1 | bioavailability [1, 3]: excellent bioavailability | brain concentration, peak [1, 3]: ≈ 500 nM | serum concentration, spike [1, 3]: approximately 3.5 μM | half-life ([1]; serum and brain, C57B6 mice, single 10 mg/kg dose IP, read-out: t1/2 of clearance from serum and brain (first-order kinetics)): ~1 h | half-life ([1]; serum, C57B6 mice, single 10 mg/kg dose IP, read-out: t1/2 of clearance from serum): ~1 h | increase in number of surviving AR(122)-C17.2 neurons (AR(122)-C17.2 cells): 100% | effect on AR(25)-C17.2 cells (AR(122)-C17.2 cells; data not shown): without affecting AR(25)-C17.2 cells | rhabdomere loss prevented [2]: 29% | AR steady-state levels (full-length AR): reduced the AR steady-state levels | aggregation of htt exon 1-CFP and -YFP fusions containing 72 repeats (htt(72)CFP/YFP): inhibited aggregation | decrease of FRET (polyglutamine protein aggregation) (ARN127(65)CFP/YFP; HEK293, ARN127(65)CFP/YFP and GRΔ, 100 nM dex, 48 hours): 40% | EC50 (ARN127(65)CFP/YFP; dose-response analysis, FRET, FIG. 3B, read-out: EC50 for the effect on polyglutamine aggregation): ~5 µM
